This note sets out measurements from patent publication US20120244567A1, “HUMAN EMBRYONIC STEM CELLS FOR HIGH THROUGHOUT DRUG SCREENING” (BUCK INSTITUTE FOR RESEARCH ON AGING, priority 2009, published 2012).

The subject of this assay is NSCs. In words: Cell death observed in NSCs in 35-mm dishes. Type of assay: cell-based, human. An excerpt:
NSCs and dopaminergic neurons grown in 35-mm dishes were exposed to amiodarone HCl.

Each structure is given as a SMILES string. Counter-ions that a name gives are not always drawn.

Regarding `CCCCc1oc2ccccc2c1C(=O)c1cc(I)c(OCCN(CC)CC)c(I)c1` [Amiodarone Hydrochloride], the “time after drug exposure at which cell death was observed in NSCs” value (35-mm dishes) is 2 h. The “cell death in NSCs” value (by 8 hours, 35-mm dishes) is on record as “more than 90%”. For the same compound, the “cell death in similarly treated NSCs” value (within one hour of drug administration) is reported as “massive cell death”.
